Earlier results in US20260048031A1, “POLYMORPHS OF CO-CRYSTALS OF ITANAPRACED AND NICOTINAMIDE” (CereSpir Incorporated, priority 2024, published 2026).
“Also recorded” adds a separate entry of the source.

Assays:
[1] = system: transgenic Alzheimer's mouse models; details: Imbimbo, 2007, 2009; Lanzillotta 2011
[2] = system: mouse models of Parkinson's Disease; details: manuscript submitted
[3] = system: rat traumatic brain injury model
[4] = system: patients with mild cognitive impairment (MCI); details: listed as itanapraced
[5] = in vivo
Juvenile Batten disease = details: unpublished

In the case of `O=C(O)C1(c2ccc(-c3ccc(Cl)c(Cl)c3)c(F)c2)CC1` [CSP-1103, 1-(3′,4′-dichloro-2-fluoro[1,1′-biphenyl]-4-yl)-cyclopropanecarboxylic acid], the “effects in transgenic Alzheimer's mouse models” value [1] is listed as “numerous beneficial effects”, the “effects in mouse models of Parkinson's Disease” value [2] is listed as “numerous beneficial effects” and the “effects in rat traumatic brain injury model” value ([3]; Lin et al., 2017) is listed as “numerous beneficial effects”. The “accumulation of hypertrophic microglia in the injured brain” value ([3]; rats after TBI (Li 2017)) was “prevented”, the acute lung injury ([3]; rats after TBI (Li 2017)) was “attenuated” and the neurological injury ([3]; rats after TBI (Li 2017)) was “attenuated”. The “TNF-α (neuroinflammatory mediator)” value ([4]; CSF / brain, MCI patients) was “beneficial dose-related CSF differences; also recorded: dose-related statistically significant reductions”, the “soluble CD40 ligand (neuroinflammatory mediator)” value ([4]; CSF / brain, MCI patients) was “beneficial dose-related CSF differences; also recorded: dose-related statistically significant reductions” and the “total tau (marker of neurodegeneration)” value ([4]; CSF / brain, MCI patients) was “beneficial dose-related CSF differences; also recorded: dose-related statistically significant reductions”. For the same molecule, the “cognitive function throughout the duration of the trial” value ([4]; MCI patients) was “stable cognition; also recorded: stable cognitive function”, the safety and tolerability ([4]; Phase 1 studies and Phase 2 in MCI, treated up to two years) was “good safety and tolerability; also recorded: well tolerated” and the “penetration into the brain” value [5] was “substantial”. The plasma half-life [5] was “long”, the oral bioavailability ([5]; po) was “good” and the “effects in mouse models of Juvenile Batten disease” value (Juvenile Batten disease) was “numerous beneficial effects”.
